In patent US20060276464A1, “Diarylsulfone sulfonamides and use thereof” (Wyeth, priority 2005, published 2006):

How the values were obtained:
SFRP-1 [1] = molecular target: T1, SFRP-1 (Homo sapiens, UniProt Q8N474); test: Fluorescence polarization binding assay (competitive displacement of a probe compound from SFRP-1); conditions: fluorescence anisotropy, 45 nM SFRP-1, 20 nM probe;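 also: test compound competes with a fluorescent probe held by SFRP-1, seen as a drop in probe anisotropy after incubation in darkness, with anisotropy as function of rising compound dose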
T1 sequence (Q8N474 32-314): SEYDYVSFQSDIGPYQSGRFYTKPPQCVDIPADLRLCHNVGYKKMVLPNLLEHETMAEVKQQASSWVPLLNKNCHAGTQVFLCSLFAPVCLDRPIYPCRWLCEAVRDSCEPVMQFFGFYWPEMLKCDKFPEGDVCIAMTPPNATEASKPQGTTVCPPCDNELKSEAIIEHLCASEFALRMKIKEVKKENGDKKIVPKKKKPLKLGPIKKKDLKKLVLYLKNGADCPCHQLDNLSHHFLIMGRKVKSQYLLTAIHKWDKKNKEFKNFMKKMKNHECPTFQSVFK

SFRP-1 [2] = molecular target: T1, SFRP-1; test: Cell-based assay for in vitro measurement of SFRP-1/SARP2 antagonist activity (U2OS cells co-transfected with 16x TCF-tk-Luciferase reporter, Wnt and hSFRP-1); conditions: for fold induction at 10 µM: U2OS, read-out: Fold Induction with SFRP-1, U2OS cells, single dose 10 μM, luciferase reporter, fold induction over SFRP-1 control;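 as to all read-outs here: U2OS cells co-transfected with a TCF-tk luciferase reporter, a Wnt vector, hSFRP-1 or empty vector and CMV-βgal, luciferase luminescence read in cell lysates alongside βgal activity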

Compound | IC50 (SFRP-1 [1]) [µM] | EC50 (SFRP-1 [2]) [µM] | fold induction at 10 µM (SFRP-1 [2])
Nc1ccc(CNS(=O)(=O)c2cc(S(=O)(=O)c3ccccc3)ccc2C(F)(F)F)cc1 [Example 942, N-(4-aminobenzyl)-5-(phenylsulfonyl)-2-(trifluoromethyl)benzenesulfonamide] | 0.19 | 0.209 | 3.8
COC(=O)C1CCCC(NS(=O)(=O)c2cc(S(=O)(=O)c3ccccc3)ccc2C(F)(F)F)C1 (stereo not shown) [Example 945, methyl 3-({[5-(phenylsulfonyl)-2-(trifluoromethyl)phenyl]sulfonyl}amino)cyclohexanecarboxylate] | 0.9 | 1.12 | 2.9
CC1(C)CC(NS(=O)(=O)c2cc(S(=O)(=O)c3ccccc3)ccc2C(F)(F)F)CC(C)(C)N1 [Example 948, 5-(phenylsulfonyl)-N-(2,2,6,6-tetramethylpiperidin-4-yl)-2-(trifluoromethyl)benzenesulfonamide] | 6 | 2.74 | 2.4
O=S(=O)(NCc1ccncc1)c1cc(S(=O)(=O)c2ccccc2)ccc1C(F)(F)F [Example 949, 5-(phenylsulfonyl)-N-(pyridin-4-ylmethyl)-2-(trifluoromethyl)benzenesulfonamide] | 0.8 | 1 | 3.2
CC(C)c1ccc(S(=O)(=O)c2ccccc2)cc1S(=O)(=O)NC1CCCC(C(=O)O)C1 (stereo not shown) [Example 952, 3-({[2-isopropyl-5-(phenylsulfonyl)phenyl]sulfonyl}amino)cyclohexanecarboxylic acid] | 5 | – | 1.4
CN(CCCNS(=O)(=O)c1cc(S(=O)(=O)c2ccccc2)ccc1C(F)(F)F)C(=O)NC1CCN(C(=O)OC(C)(C)C)CC1 [Example 955] | 6 | 5.16 | 2.4
O=C(O)c1cccc(N2CCC(CCNS(=O)(=O)c3cc(S(=O)(=O)c4ccccc4)ccc3C(F)(F)F)CC2)c1 [Example 957, 3-{4-[2-({[5-(phenylsulfonyl)-2-(trifluoromethyl)phenyl]sulfonyl}amino)ethyl]piperidin-1-yl}benzoic acid] | 0.3 | 1.39 | 3.9
CN(CCNS(=O)(=O)c1cc(S(=O)(=O)c2ccccc2)ccc1C(F)(F)F)CCC(=O)OC(C)(C)C [Example 961, tert-butyl N-methyl-N-[2-({[5-(phenylsulfonyl)-2-(trifluoromethyl)phenyl]sulfonyl}amino)ethyl]-[…]-alaninate] | 4 | 2.55 | 2.8
N#Cc1ccc(CCNS(=O)(=O)c2cc(S(=O)(=O)c3ccccc3)ccc2C(F)(F)F)cc1 [Example 966, N-[2-(4-cyanophenyl)ethyl]-5-(phenylsulfonyl)-2-(trifluoromethyl)benzenesulfonamide] | 0.5 | 0.229 | 1.5
O=C(O)[C@H]1CC[C@H](CNS(=O)(=O)c2cc(S(=O)(=O)c3ccccc3)ccc2C(F)(F)F)CC1 [Example 969, trans-4-[({[5-(phenylsulfonyl)-2-(trifluoromethyl)phenyl]sulfonyl}amino)methyl]cyclohexanecarboxylic acid] | 0.18 | 0.588 | 3.1
CN(CCCNS(=O)(=O)c1cc(S(=O)(=O)c2ccccc2)ccc1C(F)(F)F)C(=O)NC1CCNCC1 [Example 971, N-(3-{methyl[(piperidin-4-ylamino)carbonyl]amino}propyl)-5-(phenylsulfonyl)-2-(trifluoromethyl)benzenesulfonamide] | 0.6 | 0.774 | 2.7
CN(CCCNS(=O)(=O)c1cc(S(=O)(=O)c2ccccc2)ccc1C(F)(F)F)C(=O)N1CCNCC1 [Example 975, N-methyl-N-[3-({[5-(phenylsulfonyl)-2-(trifluoromethyl)phenyl]sulfonyl}amino)propyl]piperazine-1-carboxamide] | 1.5 | 5.7 | –
O=C(c1cc(Cl)cnc1Cl)N1CCC(NS(=O)(=O)c2cc(S(=O)(=O)c3ccccc3)ccc2C(F)(F)F)CC1 [Example 977, N-{1-[(2,5-dichloropyridin-3-yl)carbonyl]piperidin-4-yl}-5-(phenylsulfonyl)-2-(trifluoromethyl)benzenesulfonamide] | 0.18 | 1.1 | –
O=C(O)c1ccc(-c2ccc(CNS(=O)(=O)c3cc(S(=O)(=O)c4ccccc4)ccc3C(F)(F)F)cc2)cc1 [Example 979, 4′-[({[5-(phenylsulfonyl)-2-(trifluoromethyl)phenyl]sulfonyl}amino)methyl]biphenyl-4-carboxylic acid] | 2.2 | 2.94 | –

Further compounds by falling IC50 (SFRP-1 [1]), results first:

IC50 (SFRP-1 [1]) [µM] | EC50 (SFRP-1 [2]) [µM] | fold induction at 10 µM (SFRP-1 [2]) | Compound
7 | – | 1.5 | CC(C)c1ccc(S(=O)(=O)c2ccccc2)cc1S(=O)(=O)NC1CCC(C(=O)O)CC1 (stereo not shown) [Example 953, 4-({[2-isopropyl-5-(phenylsulfonyl)phenyl]sulfonyl}amino)cyclohexanecarboxylic acid]
3 | 2.86 | 2.7 | CN(CCNS(=O)(=O)c1cc(S(=O)(=O)c2ccccc2)ccc1C(F)(F)F)CC(=O)OC(C)(C)C [Example 962, tert-butyl N-methyl-N-[2-({[5-(phenylsulfonyl)-2-(trifluoromethyl)phenyl]sulfonyl}amino)ethyl]glycinate]
2.5 | – | 2.1 | O=C(O)C1CCCC(NS(=O)(=O)c2cc(S(=O)(=O)c3ccccc3)ccc2C(F)(F)F)C1 (stereo not shown) [Example 967, 3-({[5-(phenylsulfonyl)-2-(trifluoromethyl)phenyl]sulfonyl}amino)cyclohexanecarboxylic acid]
1.8 | 1.84 | 2.6 | COC(=O)c1ccc(CNS(=O)(=O)c2cc(S(=O)(=O)c3ccccc3)ccc2C(F)(F)F)cc1 [Example 950, methyl 4-[({[5-(phenylsulfonyl)-2-(trifluoromethyl)phenyl]sulfonyl}amino)methyl]benzoate]
1.7 | 1.44 | 2.9 | O=C(O)CN1CCC(CCNS(=O)(=O)c2cc(S(=O)(=O)c3ccccc3)ccc2C(F)(F)F)CC1 [Example 944, {4-[2-({[5-(phenylsulfonyl)-2-(trifluoromethyl)phenyl]sulfonyl}amino)ethyl]piperidin-1-yl}acetic acid]
1.4 | – | 2.4 | O=C(O)C1CCC(NS(=O)(=O)c2cc(S(=O)(=O)c3ccccc3)ccc2C(F)(F)F)CC1 (stereo not shown) [Example 968, 4-({[5-(phenylsulfonyl)-2-(trifluoromethyl)phenyl]sulfonyl}amino)cyclohexanecarboxylic acid]
0.9 | 5.57 | 2.2 | CC(C)c1ccc(S(=O)(=O)c2ccccc2)cc1S(=O)(=O)NC[C@H]1CC[C@H](C(=O)O)CC1 [Example 954, trans-4-[({[2-isopropyl-5-(phenylsulfonyl)phenyl]sulfonyl}amino)methyl]cyclohexanecarboxylic acid]
0.5 | 1.46 | 3 | COC(=O)C1CCC(NS(=O)(=O)c2cc(S(=O)(=O)c3ccccc3)ccc2C(F)(F)F)CC1 (stereo not shown) [Example 946, methyl 4-({[5-(phenylsulfonyl)-2-(trifluoromethyl)phenyl]sulfonyl}amino)cyclohexanecarboxylate]
0.4 | 0.569 | 3.4 | O=S(=O)(NCCc1ccc(O)cc1)c1cc(S(=O)(=O)c2ccccc2)ccc1C(F)(F)F [Example 943, N-[2-(4-hydroxyphenyl)ethyl]-5-(phenylsulfonyl)-2-(trifluoromethyl)benzenesulfonamide]
0.4 | 0.695 | 3.2 | COC(=O)[C@H]1CC[C@H](CNS(=O)(=O)c2cc(S(=O)(=O)c3ccccc3)ccc2C(F)(F)F)CC1 [Example 947, methyl trans-4-[({[5-(phenylsulfonyl)-2-(trifluoromethyl)phenyl]sulfonyl}amino)methyl]cyclohexanecarboxylate]
0.4 | 0.39 | 3.7 | N[C@H]1CC[C@H](NS(=O)(=O)c2cc(S(=O)(=O)c3ccccc3)ccc2C(F)(F)F)CC1 [Example 959, N-(trans-4-aminocyclohexyl)-5-(phenylsulfonyl)-2-(trifluoromethyl)benzenesulfonamide]
0.3 | 1.16 | 3.5 | O=C(O)c1cccc(S(=O)(=O)Nc2ccc(CNS(=O)(=O)c3cc(S(=O)(=O)c4ccccc4)ccc3C(F)(F)F)cc2)c1 [Example 963]
0.25 | 0.392 | – | O=C(c1ccnc(Cl)c1)N1CCC(NS(=O)(=O)c2cc(S(=O)(=O)c3ccccc3)ccc2C(F)(F)F)CC1 [Example 978, N-[1-(2-chloroisonicotinoyl)piperidin-4-yl]-5-(phenylsulfonyl)-2-(trifluoromethyl)benzenesulfonamide]
0.11 | 0.31 | 4.3 | O=C(O)c1cccc(N2CCC(CNS(=O)(=O)c3cc(S(=O)(=O)c4ccccc4)ccc3C(F)(F)F)CC2)c1 [Example 956, 3-{4-[({[5-(phenylsulfonyl)-2-(trifluoromethyl)phenyl]sulfonyl}amino)methyl]piperidin-1-yl}benzoic acid]
